Reference: patent publication US20180265467A1, “PYRAZOLIDINE DERIVATIVES AND RELATED COMPOUNDS” (SELVITA S.A., priority 2015, published 2018)

Legend:
LDHA = biological target: T1, LDHA (Homo sapiens, UniProt P00338); assay: LDHA assay (decrease in NADH fluorescence); assay type: biochemical; settings: numeric bound given instead of a class symbol
T1 construct: purchased Abcam ab93699
Description: LDHA and LDHB inhibitory activity of compounds of the present invention is quantified employing the decrease in fluorescence of the cofactor—NADH (being the result of oxidation of NADH to NAD+), over the reaction. […] All the experiments are performed in duplicates in a 96-well plate system (black, flat bottom, non-binding).
The procedure for preparation of the experimental plate is as follows (total volume of the reaction mixture: 200 μL/well):
Conditions for LDHA (Abcam, Cat. No# ab93699) Assay
Mixture of appropriate 1× concentrated reaction buffer (175 μL/well) and 40× concentrated LDHA (5 μL/well); pre-incubate for 30 mins at RT is combined with 20× concentrated pyruvate (10 μL/well) and 20× concentrated NADH (10 μL/well). Tested compounds are dissolved in solvent (DMSO, MeOH, EtOH), and then transferred to the V-bottom 96-well plate (mother plate). Single dilution (for % of inhibition determination) or 8-serial dilutions (for IC50 determination) are prepared using the appropriate solvent. The level of NADH fluorescence is then measured using multimode microplate reader (EnSpire, Perkin Elmer). The reaction should be monitored over 20 minutes with the full plate read performed each 5 minutes. Enzymatic reaction should be run at RT.
IC50 is a quantitative measure that indicates how much of a particular compound (inhibitor) is needed to inhibit a given biological process by half. […]

SNU-398 cells = assay: SNU-398 cellular lactate production assay; assay type: cell-based; settings: Snu398 cells; shown in FIG. 1
Description: In each case, and by methods known to those practiced, measurement of cellular lactate production is used to measure the activity of compounds on cancer cells.
Cells are seeded on 96-well plate in complete culture medium (200 μL media/well) at a density of 80,000 SNU-398 cells/well. The following day, eight serial dilutions of the test compound is prepared in complete culture medium and added to cells in a fresh media for 2 h. Following incubation 30 μL of culture medium from each well is transferred to a corresponding well on a new 96-well plate. In parallel Lactate Standard (30 μL/well) (Sigma, Cat. # L7022) is prepared in order to create a standard curve. 60 μL of Lactate Reagent (P000024, M Dialysis AB) is added to each well containing lactate standards or test samples and Incubated in dark for 10 min at RT followed by measurement of OD at 530 nm in a microplate reader.
Background subtracted values derived from the lactate standard and sample readings are used to determine ED50 (or % of inhibition) from data obtained in SNU-398 cellular lactate production assay:
ED50 is a quantitative measure that indicates how much of a particular compound is needed to reduce SNU-398 lactate production by half. After normalization to DMSO-control, the value of ED50 is determined by the GraphPad Prism 5.0 [log(inhibitor) vs. normalized response—Variable slope]. […]

IC50 (LDHA) [µM] | SMILES | Inhibition of lactate production (SNU-398 cells)
> 300 | O=C1N[C@H](Cc2ccccc2)C(O)=C1Sc1cc(Br)ccc1Cl [Example 6E, 5-benzyl-3-[(5-bromo-2-chlorophenyl)sulfanyl]pyrrolidine-2,4-dione] | 
 | O=c1c(Sc2ccccc2Cl)c(O)[nH]n1C(c1ccccc1)c1ccc(N2CCOCC2)cc1 (centres unmarked) [Example 8A, Ammonium 4-[(2-chlorophenyl)sulfanyl]-2-{[4-(morpholin-4-yl)phenyl](phenyl)methyl}-5-oxo-2,5-dihydro-1H-pyrazol-3-olate] | Inhibition of lactate production
